Experimental data: patent publication US20260091097A1, “COMBINATION TREATMENT REGIMES FOR TREATING CANCER” (Barinthus Biotherapeutics North America, Inc., priority 2022, published 2026)

Experiments:
Type in all cases: in vivo, mouse
MC38 tumors = assay: Therapeutic MC38 tumor model, SNP-7/8a prime day 7 and boost day 14 together with anti-PD-L1; conditions: SNP-SC (Reps1) prime, IV boost 7 days later without tumor antigen
Method: For each tumor implantation, a frozen cell aliquot was thawed and cultured in MC38 media at 37° C. and 5% CO2, passaged once and collected using trypsin EDTA (Gibco). Then, […] in sterile PBS per mouse were implanted subcutaneously on the right flank. Tumors were measured twice a week using digital calipers. Tumor volume was estimated using the formula: (tumor volume=short×short×long/2). Animals were killed when tumors surpassed 1,000 mm^3.
Mice were implanted with MC38 tumors on the subcutaneous flank and were treated on day 7 (prime) and day 14 (boost) with SNP-7/8a containing Reps1, an MC38 neoAg, together with anti-PD-L1 (FIG. 1A). […] To confirm and extend these findings in a different tumor model, mice were implanted with TC-1 tumors and treated with SNP-7/8a containing HPV E6 antigen.
To assess the requirement for antigen at the time of boost, mice were primed with SNP-SC containing Reps1, followed by SNP-IV containing an irrelevant antigen (FIG. 1E).

[1] = test system: neoAg-specific CD8+ T cells; assay: Flow cytometry of tetramer+ CD8+ T cells after SNP vaccination; conditions: IV administration after SNP-SC prime, still with anti-tumor efficacy
Method: For T cell tetramer analysis, cells were assessed for viability with LIVE/DEAD Fixable Blue Dead Cell Stain Kit (Invitrogen) in PBS containing 50 nM dasatinib (STEMCELL Technologies) for 30 min at room temperature. Samples were then washed and blocked with anti-CD16/CD32 (BD Biosciences). Cells were then stained with fluorescently conjugated tetramer in cell staining buffer (PBS and 2% FCS) containing 50 nM dasatinib to enhance staining. Cells were simultaneously stained with the following surface antibodies to: CD8 (clone 53-6.7), PD-1 (clone 29F.A12), Tim-3 (clone RMT3-23), CD44 (clone IM7), CD39 (clone Duha59), and NKG2A (clone 16A11) purchased from BioLegend and CD4 (clone RM4-4) purchased from BD Biosciences. After a 1-h incubation at 4° C., cells were washed twice in cell staining buffer, fixed and permeabilized using the FoxP3 transcription factor staining buffer set (eBioscience). […]
To assess whether there are differences in the magnitude of neoAg-specific CD8^+ T cells after SNP-SC or SNP-IV boost, whole blood was sampled on day 21, a week after the boost and measured the tetramer^+ population by flow cytometry (FIG. 1G). […]
As markers of exhaustion and antigen experience on CD8^+ T cells are important for improving the therapeutic effects of immune checkpoint blockade, the expression of PD-1, TIM-3 and NKG2A post vaccination were assessed. […]

cDC1s = assay: Flow cytometry of DC numbers and maturation after vaccination; conditions: IV route; comparable to SNP-IV
Method: For the mononuclear phagocyte uptake analysis, cells were assessed for viability with the LIVE/DEAD Fixable Blue Dead Cell Stain Kit for 10 min at room temperature. After FcR blocking, cells were stained for 20 minutes at room temperature with the following surface antibodies: NK1.1 (clone PK136), CD19 (clone 1D3), CD3 (clone 145-2C11), Ly6G (clone 1A8), CD45 (clone 30-F11), Siglec-H (clone 440c), CD86 (clone GL1), CD11c (clone L3), CD80 (clone 16-10A1), B220 (clone RA3-6B2), CD64 (clone X54-5/7.1), CD11b (clone MI/70) and Ly6C (clone AL-21) purchased from BD Biosciences, CCR7 (clone 4B12), MHC class II (I-A/I-E, clone M5/114.15.2), CD169 (clone 3D6.112) and XCR1 (clone ZET) purchased from BioLegend, and CD172a (clone P84) from Thermo Fisher Scientific. The stain was washed off and cells were then fixed in 0.5% PFA in PBS until they were acquired on an LSRFortessa X50 (BD Biosciences) using the FACSDiva software v8.0.1 (BD Biosciences).
Given the systemic distribution of vaccine after SNP-IV but not SNP-SC, the levels of pro-inflammatory cytokines in the sera of mice were assessed at 6 hours after vaccination (FIG. 3F). High levels of systemic IFNα and IL-12 were measured by ELISAs after SNP-IV, especially at the higher dose of 32 nmol that is used in the therapeutic studies, compared to SNP-SC (FIG. 3F). […]

## polyIC:LC
MC38 tumors
  Tumor growth: significantly mediate tumor regression and prolong survival
[1]
  CD8+ T cell responses compared to the other vaccinated groups: ten-fold lower
cDC1s
  DC maturation in the spleen and tumor-draining LN: able to induce DC maturation
